Experimental data published in BindingDB's records for doi:10.7270/Q2TX3CTT (Broad Institute, 2010).

Target: Glycogen synthase kinase-3 beta (Homo sapiens, UniProt P49841)
Test: GSK3beta kinase inhibitor potency, dose response, biochemical, luminescence, cell-free homogeneous, retest (AID 434954)

Chain of Glycogen synthase kinase-3 beta (P49841 whole entry): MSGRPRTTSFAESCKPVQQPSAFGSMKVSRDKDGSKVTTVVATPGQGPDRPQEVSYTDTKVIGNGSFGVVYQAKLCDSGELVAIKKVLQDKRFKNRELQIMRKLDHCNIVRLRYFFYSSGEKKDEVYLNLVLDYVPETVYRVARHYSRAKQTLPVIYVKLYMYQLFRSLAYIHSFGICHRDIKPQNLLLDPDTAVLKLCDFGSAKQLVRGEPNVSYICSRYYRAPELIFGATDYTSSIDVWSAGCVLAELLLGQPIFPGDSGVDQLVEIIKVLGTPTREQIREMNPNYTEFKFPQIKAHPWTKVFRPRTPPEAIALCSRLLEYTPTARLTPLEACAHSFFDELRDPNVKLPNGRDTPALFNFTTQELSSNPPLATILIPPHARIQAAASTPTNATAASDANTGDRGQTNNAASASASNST

| Compound | EC50 [µM] |
| --- | --- |
| O=C(NCC(c1ccco1)N1CCc2ccccc21)c1c(F)cccc1F (centres undefined) [N-[2-(2,3-dihydroindol-1-yl)-2-(furan-2-yl)ethyl]-2,6-bis(fluoranyl)benzamide] | > 300 |
| COc1ccc(N2CCN(c3cc(C)nc4ccc(OC)cc34)CC2)cc1 [MLS001174346] | > 300 |
| N#Cc1ccc(CSc2nnc(-c3ccncc3)o2)cc1 [MLS000687325] | 15.1 |
| Cc1cc(OC(C)C)c2c(-c3ccccc3)cc(=O)oc2c1 [SMR000141385] | > 300 |
| Cc1ccc(C)c(Nc2nc(-c3ccncc3)nc3ccccc23)c1 | > 300 |
| COc1cccc(C(=O)N/N=C/c2ccc(Oc3ccc([N+](=O)[O-])cn3)c(OC)c2)c1 [3-methoxy-N-[[3-methoxy-4-(5-nitropyridin-2-yl)oxyphenyl]methylideneamino]benzamide] | > 300 |
| Cc1nn(-c2ccccn2)c2c1C(c1ccncc1)C1C(=O)CC(C)(C)CC1=N2 (centres undefined) [SMR000152057] | > 300 |
| COc1cccc2cc(C(=O)NCc3ccccc3Br)c(=O)oc12 [N-[(2-bromophenyl)methyl]-8-methoxy-2-oxo-1-benzopyran-3-carboxamide] | > 300 |
| CN(c1ncnc(N)c1[N+](=O)[O-])C1CCCCC1 | 2.57 |
| O=C(NN=Cc1cc(Br)ccc1O)c1ccccc1Cl [N'-[(E)-(3-bromo-6-oxocyclohexa-2,4-dien-1-ylidene)methyl]-2-chlorobenzohydrazide] | > 300 |
| Oc1ccccc1CN=Nc1nnn[nH]1 [(6E)-6-[(2H-tetrazol-5-ylhydrazo)methylidene]-1-cyclohexa-2,4-dienone] | > 300 |
| COc1ccc(-c2nn(-c3ccccc3)cc2CN=Nc2ccc3ccccc3n2)cc1OC [MLS000388895] | > 300 |
| O=NCc1ccc(SCc2ccccc2Cl)c([N+](=O)[O-])c1 | > 300 |
| O=C(O)c1ccc(CN=Nc2ccc(C(F)(F)F)cn2)cc1 | 20.4 |
| O=C(O)c1cccc(Nc2nc(-c3ccccc3)nc3ccccc23)c1 [SMR000538934] | > 300 |
| CC(NCCC(Cc1ccccc1)c1ccco1)c1ccccc1 (centres undefined) [SMR000294034] | > 300 |
| CN1CCc2c(sc3c2c(=O)n(-c2ccc(Cl)cc2)c2nncn32)C1 [SMR000042939] | > 300 |
| Cc1cccc(OCc2nnc(SCC(=O)Nc3sc(C)c(C)c3C#N)n2C)c1 [N-(3-cyano-4,5-dimethylthiophen-2-yl)-2-[[4-methyl-5-[(3-methylphenoxy)methyl]-1,2,4-triazol-3-yl]sulfanyl]acetamide] | > 300 |
| CCOC(=O)c1c(C)[nH]c(C)c1S(=O)(=O)NCC(=O)Nc1ccccn1 [ethyl 2,5-dimethyl-4-[[2-oxo-2-(pyridin-2-ylamino)ethyl]sulfamoyl]-1H-pyrrole-3-carboxylate] | > 300 |
| Cc1cccc(Nc2ccccc2C(=O)O)c1C | > 300 |
| O=C1Nc2cc(C(=O)N3CCC(N4CCCCC4)CC3)ccc2S/C1=C\c1ccccc1 [SMR000635251] | 16.9 |
| CN1CCN(C(=O)Cn2ncc3c([nH]c4ccccc43)c2=O)CC1 [3-[2-(4-methylpiperazin-1-yl)-2-oxidanylidene-ethyl]-2H-pyridazino[4,5-b]indol-4-one] | > 300 |
| COc1ccc(NC(=O)c2sc(S)nc2N)cc1 [4-Amino-2-thioxo-2,3-dihydro-thiazole-5-carboxylic acid (4-methoxy-phenyl)-amide] | > 300 |

| Compound | EC50 [µM] |
| --- | --- |
| CN(C)Cc1c(O)ccc2c(-c3ccccc3)cc(=O)oc12 [SMR000277276] | > 300 |
| S=c1[nH]c(-c2ccccc2)cn1N=Cc1ccncc1 | 140 |
| CCC(N=C(S)NC1CCCCC1)c1ccccc1 (centres undefined) [SMR000678367] | > 300 |
| COc1ccc(C(O)c2coc3ccc(O)c(CN(C)C)c23)cc1 (centres undefined) [SMR000070308] | > 300 |
| O=C(NN=Cc1ccc(-c2ccc(Cl)c(C(=O)O)c2)o1)c1cc2c(ccc3ccccc32)o1 [5-[5-[(benzo[e][1]benzofuran-2-carbonylhydrazinylidene)methyl]furan-2-yl]-2-chlorobenzoic acid] | > 300 |
| CCn1c(SCC(=O)Nc2nccs2)nnc1C1CC1 [2-[(5-cyclopropyl-4-ethyl-1,2,4-triazol-3-yl)sulfanyl]-N-(1,3-thiazol-2-yl)ethanamide] | > 300 |
| OC[C@H]1O[C@@H](n2cnc3c(O)ncnc32)[C@H](O)[C@@H]1O [Atorel] | > 300 |
| COC(=O)c1ccc(CSc2nnc(-c3ccncc3)o2)cc1 | > 300 |
| O=C(O)c1ccc(N=NCc2ccc(-c3cccc(Cl)c3)o2)cc1 [SMR000415894] | > 300 |
| COc1ccc(-c2nnc(NC(=O)C3=COCCO3)o2)cc1 [MLS000722006] | > 300 |
| O=[N+]([O-])c1c(-c2cn[nH]c2)n[nH]c1-c1cn[nH]c1 [SMR000289595] | 13.6 |
| COc1cc(C2c3c(n(Cc4ccccc4)c(=O)[nH]c3=O)N=C3CC(C)(C)CC(=O)C32)ccc1O (centres undefined) | > 300 |
| CCC(=NNC(=O)CSCc1ccccc1Cl)c1ccc2c(c1)OCCO2 | > 300 |
| CCOC(=O)c1nnn(-c2nonc2N)c1COc1ccccc1 [ethyl 1-(4-amino-1,2,5-oxadiazol-3-yl)-5-(phenoxymethyl)triazole-4-carboxylate] | 23.8 |
| CCOC(=O)c1nnn(-c2nonc2N)c1-c1ccc(OCC)cc1 [1-(4-amino-1,2,5-oxadiazol-3-yl)-5-(4-ethoxyphenyl)-4-triazolecarboxylic acid ethyl ester] | 20 |
| CC(C)=CCc1c(O)cc2c(c1O)C(=O)CC(c1ccc(O)cc1)O2 (centres undefined) [2-(4-hydroxyphenyl)-6-(3-methylbut-2-enyl)-5,7-bis(oxidanyl)-2,3-dihydrochromen-4-one] | > 300 |
| CCOC(=O)CC(=O)CSc1ccc2nnc(-c3ccc(C)cc3)n2n1 [3-keto-4-[[3-(p-tolyl)-[1,2,4]triazolo[4,3-b]pyridazin-6-yl]thio]butyric acid ethyl ester] | 14.3 |
| CCn1c(SCc2ccccc2)nnc1-c1cccs1 | > 300 |
| Nc1nc(Nc2ccccc2)nc(NCCO)c1[N+](=O)[O-] [2-(6-Amino-5-nitro-2-phenylamino-pyrimidin-4-ylamino)-ethanol] | 5.77 |
| CCN1CCN(c2nc(N)c([N+](=O)[O-])c(Nc3cccc(C)c3)n2)CC1 [2-(4-ethylpiperazin-1-yl)-4-N-(3-methylphenyl)-5-nitropyrimidine-4,6-diamine] | > 300 |
| COc1ccc(OC)c(C(=O)c2coc3ccc(O)cc23)c1 [(2,5-dimethoxyphenyl)-(5-hydroxy-1-benzofuran-3-yl)methanone] | > 300 |
| Nc1nc(NCC2CCCO2)nc(Nc2cccc(F)c2)c1[N+](=O)[O-] (centres undefined) [N4-(3-fluorophenyl)-5-nitro-N2-(2-oxolanylmethyl)pyrimidine-2,4,6-triamine] | 7.14 |
| O=C(c1ccncc1)N1CCN(C(=O)c2ccco2)CC1 [MLS000066790] | > 300 |

| Compound | EC50 [µM] |
| --- | --- |
| CCCCn1nc(NC(=O)c2cccs2)c2cc3cc(OC)ccc3nc21 [SMR000046614] | 9.23 |
| CN1CCc2c(sc3c2c(=O)n(-c2ccccc2)c2nncn32)C1 [SMR000045494] | > 300 |
| N#CCCn1cc(CN=O)c(-c2ccc(-c3ccccc3)cc2)n1 [3-[4-(hydroxyiminomethyl)-3-(4-phenylphenyl)pyrazol-1-yl]propanenitrile] | > 300 |
| COCCN(CC(=O)NCc1ccccc1)C(=O)CCC(=O)Nc1ccccn1 [SMR000004552] | > 300 |
| COc1ccc(C)cc1S(=O)(=O)Nc1cc2c3c(c1)CCN3C(=O)CC2 [SMR000812053] | > 300 |
| COc1cc2[nH]c(=O)n3nc(-c4ccccc4)nc3c2cc1OC [8,9-dimethoxy-2-phenyl[1,2,4]triazolo[1,5-c]quinazolin-5(6H)-one] | 5.34 |
| CCN(CC)Cc1c(C(=O)NN=Cc2cccc3ccccc23)nnn1-c1nonc1N [1-(4-amino-1,2,5-oxadiazol-3-yl)-5-(diethylaminomethyl)-N-(1-naphthalenylmethylideneamino)-4-triazolecarboxamide] | > 300 |
| O=C(OCCN1CCOCC1)c1ccc(O)cc1 [SMR000513589] | > 300 |
| c1ccc(CSc2ccc3nnc(-c4ccccn4)n3n2)cc1 | > 300 |
| O=C(O)c1ccccc1NC(=O)c1ccccc1Nc1ccccc1 [2-[(2-phenylazanylphenyl)carbonylamino]benzoic acid] | > 300 |
| CCCN(C(=O)CCNC(=O)Cn1cnc2ccccc2c1=O)c1cccc(Cl)c1 [N-(3-chlorophenyl)-3-[[2-(4-oxoquinazolin-3-yl)acetyl]amino]-N-propylpropanamide] | > 300 |
| CCCCn1nc(NC(=O)COC)c2cc3cc(OC)ccc3nc21 [N-(1-butyl-6-methoxy-3-pyrazolo[3,4-b]quinolinyl)-2-methoxyacetamide] | > 300 |
| O=c1c2ccccc2cnn1-c1nc2ccccc2[nH]1 [MLS001017304] | 25.1 |
| Cc1cc([N+](=O)[O-])c(C)cc1-c1ccc(/C=N/n2cnnc2)o1 [1-[5-(2,5-dimethyl-4-nitrophenyl)furan-2-yl]-N-(1,2,4-triazol-4-yl)methanimine] | > 300 |
| O=C(NCc1ccco1)C(=O)c1cn(CC(=O)N2CCCC2)c2ccccc12 [N-(furan-2-ylmethyl)-2-oxidanylidene-2-[1-(2-oxidanylidene-2-pyrrolidin-1-yl-ethyl)indol-3-yl]ethanamide] | > 300 |
| CC(=NNC(=O)c1nnn(-c2nonc2N)c1CN1CCc2ccccc21)c1ccccc1O [MLS001076839] | > 300 |
| CN(C)Cc1c(C(=O)NN=CCCc2ccccc2)nnn1-c1nonc1N | 21.8 |
| O=C1Nc2ccc([N+](=O)[O-])cc2C1=NNC1CS(=O)(=O)CC1O (centres undefined) [SMR000368316] | 23 |
| CC(C)(C)c1ccc(C=Nn2cnnc2)cc1 [MLS000660819] | > 300 |
| COc1ccc(/C=C2/Sc3ccc(C(=O)NCCN4CCCCCC4)cc3NC2=O)cc1 [(2E)-N-[2-(azepan-1-yl)ethyl]-2-[(4-methoxyphenyl)methylidene]-3-oxo-4H-1,4-benzothiazine-6-carboxamide] | > 300 |
| Nc1nc(Nc2ccccc2F)nc(NCCO)c1[N+](=O)[O-] [2-[6-Amino-2-(2-fluoro-phenylamino)-5-nitro-pyrimidin-4-ylamino]-ethanol] | 15.6 |
| CCOC(=O)CCCSc1nnc(CCCCCN2C(=O)c3cccc4cccc(c34)C2=O)o1 [SMR000235858] | > 300 |
| O=C(O)c1ccc(-c2ccc(CN=Nc3ccc([N+](=O)[O-])cc3)o2)cc1 | > 300 |
